Results published in patent US20210269734A1, “POLYISOBUTYLENE-SUBSTITUTED PHENOL, DERIVATIVES THEREOF, AND LUBRICATING COMPOSITIONS CONTAINING THE POLYISOBUTYLENE-SUBSTITUTED PHENOL AND ITS DERIVATIVES” (The Lubrizol Corporation, priority 2016, published 2021).
Like-named read-outs stand apart in the source and are kept apart here.

Key:
Daphnia sp. [1] = conditions: OECD Test No. 202 acute immobilisation
Procedure: The polyisobutylene substituted phenol described in Example 1 was tested for Acute Ecotox Value for Invertebrate using the OECD Guidelines for the Testing of Chemicals, Test No. 202 Daphnia sp. Acute Immobilisation Test (2004). Samples of alkyl-phenols having C4 and C8 alkyl groups were compared to the Sample of Example 1. A published test value for PDDP using the same test method is also included as a comparison.

Daphnia sp. [2] = conditions: published value, same test method; Daphnia magna, Sewell & McKenzie (2005a); cited from earlier work

Substance	Acute Ecotox Value for Invertebrate daphnid (EC50) (Daphnia sp. [1])	Acute Ecotox Value for Invertebrate daphnid (EC50) (Daphnia sp. [2])
350 Mn polyisobutylene-alkylated phenol [Example 1]	>100 µg/mL	
PDDP [Comparative Ex. 3]		0.037 µg/mL
